In US8691576B2, “Regeneration and mass propagation of Jatropha curcas through somatic embryogenesis” (Joil (S) Pte Ltd., priority 2008, dated 2014):

Assays:
Format in all cases: cell-based
[1] = system: Jatropha curcas somatic embryo explants; assay: Re-initiation of somatic embryogenesis from matured somatic embryos on solid DGA and derivative media; details: for production of secondary somatic embryos and embryogenic calli: supplementation in solid DGA-type medium
Experimental: Somatic embryos were matured in 2,4-D-free liquid MS medium and hypocotyl-root apex tissues were excised from somatic embryos larger than 0.5 cm. Those smaller than 0.5 cm were cultured intact. The explants were cultured in various DGA or its derivative solid medium. […] 2,4-D and kinetin could be added as optional supplements (not shown).

[2] = system: Jatropha curcas embryogenic calli; assay: Embryogenic liquid suspension culture; details: KNO3 increased to 1.9 g/l to 3.8 g/l
Experimental: FIGS. 5A-5D show embryogenic liquid suspension culture. About 50 mg embryogenic calli produced in solid DGA medium were inoculated in 20 ml modified DGA liquid media. Embryos larger than 2 mm were removed before inoculation. Subculture was done every two weeks. Photos were taken after 2 subcultures. FIG. 5A: 20 g/l sucrose, 1 g/l glutamine, 0.5 g/l asparagine, no 2,4-D. FIG. 5B: 20 g/l sucrose, 1 g/l glutamine, 0.5 g/l asparagine, 0.2 g/1 2,4-D. FIG. 5C: 30 g/l sucrose, 1 g/l glutamine, 0.5 g/l asparagine, 0.2 g/1 2,4-D. FIG. 5D: 20 g/l sucrose, 1 g/l glutamine, 0.5 g/l asparagine, 1 g/1 2,4-D. Arrow indicates the non-embryogenic ball-shaped calli. Scale bar represents 1 cm.
Liquid cultures were performed in 65 mm plastic cylinder containers or 250 ml glass conical flasks that were placed in shakers set at 80 rpm, 28° C. constant temperature and 16-8 hours day-light cycles.
Effects 2,4-D and carbon source on establishment of somatic embryogenic liquid suspension culture was investigated. […] At sucrose level ranging from 10-30 g/l, continued culture lead to maturation of the somatic embryo with no new initiation of secondary embryos (FIG. 5A). The somatic embryos thus produced share good synchrony and are excellent materials for re-induction of TIISEs (Refer to Example 13). […] The suspension cultures were stable for months if large embryos were removed. Further, sucrose concentration needs to be reduced below about 20 g/l (compare FIGS. 5B and 5C).

[3] = system: Jatropha curcas somatic embryos (TISEs); assay: Effect of GA3 on germination of somatic embryos; details: for Hypocotyl Extension % / Root Growth % / Viable Germination SE % / Hypocotyl Extension SE Count / Root Growth SE Count / Viable Germination SE Count: three weeks; for Hypocotyl Extension SE Count / Root Growth SE Count / Viable Germination SE Count: 30 explants;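 for all read-outs here: groups of 20–30 TISEs per medium were moved onto each medium and scored for germination traits, with GA3-free media as the comparison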
[4] = system: Jatropha curcas somatic embryos; assay: Effect of abscisic acid in maturation media on germination; details: ABA 0-5 mg/l in DGA or EGA media or variants
Experimental: To further explore methods to improve germination, abscisic acid (ABA) between 0-5 mg/l was supplemented in DGA or EGA media or their variants with 10-30 g/l sucrose and 20-60 g/1 maltose. […] Examples of the effects are shown in Table 10, where 20-30 TISEs were transferred to various media listed below. Except in ¼ strength MS medium, few somatic embryos germinated without GA3. […] Reducing the strength of basal salts was likewise beneficial to germination of somatic embryos.

[5] = system: Jatropha curcas immature embryo and endosperm explants; assay: Effect of kinetin on TISE and TIISE formation; details: for TIISE (%) >5 SE / TIISE (%) >10 SE / TIISE (%) Total / TISE (%): 5 mg/l 2,4-D, 6 weeks, then DGA 4 weeks
Experimental: Developing fruits were surface-sterilized and dissected to yield 120 immature embryos that were shorter than 1.5 cm in length. After cutting into halves, the explants were cultured in media with a series of kinetin concentrations. On the 5th day, the endosperm tissues were separated from the embryos, further reduced into small pieces of about 0.25 cm^2 and transferred to the fresh medium with the same kinetin concentrations. After one subcultures (6 weeks in total), the calli were transferred to DGA medium and cultured for one month. Twenty immature embryos were used in each treatment. It was observed that TISEs were almost exclusively formed on endosperm tissues where the embryos had been detached after three's culture.

[6] = Full strength MS salt and B5 vitamins, GA3 2 mg/L
[7] = Full strength MS salt and B5 vitamins, GA3 3 mg/L
[8] = ¼ Strength MS salt and B5 vitamins, GA3 2 mg/L
[9] = ¼ Strength MS salt and B5 vitamins, GA3 3 mg/L
[10] = ½ Strength MS salt and B5 vitamins, GA3 2 mg/L
[11] = ½ Strength MS salt and B5 vitamins, GA3 3 mg/L

SMILES: NC(=O)CC[C@H](N)C(=O)O [glutamine]
- production of secondary somatic embryos and embryogenic calli [1]: greatly improved production of secondary somatic embryos and embryogenenic calli

SMILES: O=[N+]([O-])[O-].[K+] [KNO3]
- maintenance of liquid suspension culture [2]: facilitated maintaining the liquid suspension culture at early stages of embryogenesis
- embryo differentiation and maturation ([1]; increase in KNO3 in modified DGA solid medium): favored embryo differentiation but inhibited maturation

SMILES: C=C1C[C@]23C[C@@]1(O)CC[C@H]2[C@@]12C=C[C@H](O)[C@@](C)(C(=O)O1)[C@H]2[C@@H]3C(=O)O [GA3, gibberellic acid]
- Hypocotyl Extension % [3, 6]: 30%
- Root Growth % [3, 6]: 53%
- Viable Germination SE % [3, 6]: 30%
- Hypocotyl Extension SE Count [3, 6]: 16
- Root Growth SE Count [3, 6]: 16
- Viable Germination SE Count [3, 6]: 9
- Hypocotyl Extension % [3, 7]: 44%
- Root Growth % [3, 7]: 37%
- Viable Germination SE % [3, 7]: 5%
- Hypocotyl Extension SE Count [3, 7]: 16
- Root Growth SE Count [3, 7]: 11
- Viable Germination SE Count [3, 7]: 2
- germination of somatic embryos ([3]; many media tested): significantly improved germination in many media tested
- Hypocotyl Extension % [3, 8]: 32%
- Root Growth % [3, 8]: 43%
- Viable Germination SE % [3, 8]: 19%
- Hypocotyl Extension SE Count [3, 8]: 14
- Root Growth SE Count [3, 8]: 13
- Viable Germination SE Count [3, 8]: 6
- Hypocotyl Extension % [3, 9]: 26%
- Root Growth % [3, 9]: 47%
- Viable Germination SE % [3, 9]: 8%
- Hypocotyl Extension SE Count [3, 9]: 12
- Root Growth SE Count [3, 9]: 14
- Viable Germination SE Count [3, 9]: 2
- Hypocotyl Extension % [3, 10]: 34%
- Root Growth % [3, 10]: 27%
- Viable Germination SE % [3, 10]: 21%
- Hypocotyl Extension SE Count [3, 10]: 9
- Root Growth SE Count [3, 10]: 8
- Viable Germination SE Count [3, 10]: 7
- Hypocotyl Extension % [3, 11]: 26%
- Root Growth % [3, 11]: 53%
- Viable Germination SE % [3, 11]: 23%
- Hypocotyl Extension SE Count [3, 11]: 14
- Root Growth SE Count [3, 11]: 16
- Viable Germination SE Count [3, 11]: 6

SMILES: CC1=CC(=O)CC(C)(C)[C@@]1(O)/C=C/C(C)=C\C(=O)O [abscisic acid]
- plantlet abnormality [4]: plantlet abnormality was apparently increased
- improvement of germination ([4]; germination in MS medium): Improvement of germination in MS medium was not observed

SMILES: NC(=O)C[C@H](N)C(=O)O [asparagine]
- production of secondary somatic embryos and embryogenic calli [1]: greatly improved production of secondary somatic embryos and embryogenenic calli

SMILES: c1coc(CNc2ncnc3[nH]cnc23)c1 [Kinetin, kinetin]
- TIISE (%) >5 SE ([5]; Kinetin 0.05 mg/l): 15%
- TIISE (%) >10 SE ([5]; Kinetin 0.05 mg/l): 0%
- TIISE (%) Total ([5]; Kinetin 0.05 mg/l): 25%
- TISE (%) ([5]; Kinetin 0.05 mg/l): 35%
- TIISE (%) >5 SE ([5]; Kinetin 0.1 mg/l): 15%
- TIISE (%) >10 SE ([5]; Kinetin 0.1 mg/l): 5%
- TIISE (%) Total ([5]; Kinetin 0.1 mg/l): 30%
- TISE (%) ([5]; Kinetin 0.1 mg/l): 35%
- TIISE (%) >5 SE ([5]; Kinetin 0.2 mg/l): 15%
- TIISE (%) >10 SE ([5]; Kinetin 0.2 mg/l): 0%
- TIISE (%) Total ([5]; Kinetin 0.2 mg/l): 30%
- TISE (%) ([5]; Kinetin 0.2 mg/l): 40%
- TIISE (%) >5 SE ([5]; Kinetin 0.5 mg/l): 10%
- TIISE (%) >10 SE ([5]; Kinetin 0.5 mg/l): 5%
- TIISE (%) Total ([5]; Kinetin 0.5 mg/l): 20%
- TISE (%) ([5]; Kinetin 0.5 mg/l): 25%
- TIISE (%) >5 SE ([5]; Kinetin 1 mg/l): 0%
- TIISE (%) >10 SE ([5]; Kinetin 1 mg/l): 0%
- TIISE (%) Total ([5]; Kinetin 1 mg/l): 15%
- TISE (%) ([5]; Kinetin 1 mg/l): 45%
- TIISEs formation ([5]; kinetin 0-1 mg/l): appeared to negatively affect TIISEs formation
- induction of TISEs ([5]; kinetin 0-1 mg/l): played little role in induction of TISEs
